Measurements taken from patent publication US4886806A, “Flavone-3-carboxylic acids compounds and pharmaceutical compositions containing them” (Kali-Chemie Pharma GmbH, priority 1987, dated 1989).
Read-outs that look alike come from different tables or passages of the source.

Columns and labels:
[1] = system: carrageenin foot edema in male Wistar rats; assay: Inhibition of carrageenin foot edema in rats (Winter et al.); assay type: in vivo; details: Rattus norvegicus, 2 h after irritant; for inhibition in vivo at 100 µmol/kg: 100 μmol/kg p.o.
Procedure: A similar volume of isotonic sodium chloride solution was injected in the left hind foot. The volume of the each rat's foot was measured plethysmometrically both before and two hours after administration of the irritant, and the swelling of the foot volume after the carrageenin application was compared to the foot which was treated only with sodium chloride solution The inhibition of edema formation by the test substances in the treated animals was compared in percentage terms with the animals of the untreated control group.

[2] = system: oxygen radical-forming activity of peritoneal exudate cells (PEC) of mice; assay: Spontaneous CL and induced CL chemiluminescence test: inhibition of oxygen radical liberation from peritoneal exudate cells (30 min preincubation); assay type: cell-based; set-up: concentration or dose not given beside the values; details: for Inhibition in vitro of the oxygen radical liberation, Chemiluminescence Test % inhibition, Ind. CL: induced CL, after ZyC3b activation; for Inhibition in vitro of the oxygen radical liberation, Chemiluminescence Test % inhibition, Spnt. CL: spontaneous CL, before ZyC3b
Procedure: 1. To determine the inhibiting effect on the oxygen radical-forming activity of inflamed cells, the in vitro inhibition of the release of oxygen radicals from activated peritoneal exudate cells (=PEC) of mice was determined in the chemiluminescence (CL) test according to the method of Mueller-Peddinghaus (Int. J. Immunopharmac. 6, 455-466 (1984)). […] The intensity of the chemiluminescence is a measurement of the oxygen radical content in the suspension and thus the degree of activity of the inflamed cells. In this, three functionally different parameters are detected, the spontaneous CL, the induced CL and the peak CL. The spontaneous CL and the induced CL on the one hand and the peak CL on the other hand differ from each other because in the first two parameters the test substances are in contact with the cells for a 30 minute preincubation period before the inflammation irritant is added, whereas with the peak CL the cells are first stimulated, and the test substance is added at the peak of their activity. The measurement of the spontaneous CL thus detects the influence of the test substance on the relative rest activity of inflamed cells, the induced CL represents the effect of the test substances on the activatability of the cells and the inhibition of the peak CL indicates the effect of the test substances on the maximum activity of the inflamed cells. 1.1 Production of PEC suspension used in the test. In order to induce the PEC formation, female mice of 20-25 g body weight were each injected i.p. with 2 ml of a 3% solution of thioglycollate in sterile isotonic sodium chloride solution. Twenty four hours after the thioglycollate injection the cells, which predominantly consisted of polymorphonuclear leucocytes, were recovered by washing out of the abdominal cavity and washed twice. As cell culture medium there was added a commercially available solution under the designation RPMI 1640 (pH 7.2) (produced by Flow Laboratories, […], Germany), which contains 10% fetal calf serum (FCS, produced by Seromed GmbH, Munich, Germany) 18 μmol/l sodium bicarbonate and 2 μmol/l L-glutamine. The cell pellets of four animals each time were resuspended in cell culture medium, collected together and the suspension was made up to 2×10^6 cells per ml with cell culture medium. The cell suspensions were kept under ice cooling until their use the same day. 1.2 Production of the complement opsonized zymosan (=ZyC3 b) suspension used for activation. 200 mg zymosan (glycoprotein mixture isolated from the cell walls of brewer's yeast, Sacchomyces […], produced by Sigma Chemical Co., Munich, Germany) were suspended in 10 ml phosphate buffer solution according to Dulbecco (produced by Flow Laboratories, […], Germany), well stirred and heated for thirty minutes in a water bath to 100° C. After cooling, it was centrifuged for five minutes at 4° C. and at 600 ×g and the supernatant was discarded. The sediment was resuspended in 50 ml human serum and incubated for thirty minutes at 37° C. in a shaking water bath. Then it was centrifuged for five minutes at 600 ×g and 420 C., the supernatant decanted and the sediment washed with phosphate buffer solution. The working suspension of 8×10^-3 g ZyC3 b/ml was produced from the sediment by dilution with phosphate buffer solution (Mueller-Peddinghaus et al., Zbl. Vet. Med. B. 30, 559-575). 1.3 Chemiluminescence (CL) measurement (Peak-CL). […] At the end of this preincubation phase, 100 μl lucigenin were added, and in the course of the subsequent sixteen minute incubation phase the spontaneous CL parameter was determined with two measuring points. Then 100 μl ZyC3 b+100 μl phosphate buffer were added, and during the course of the subsequent twenty-four minute cell activation the induced CL parameter was measured with three measuring points. All measurements were determined twice. The parameters spontaneous CL and induced CL were determined on the same day with two separate cell pools.

Lipoxygenase = assay: LTB4 synthesis and inhibition test (lipoxygenase inhibition in vitro) in polymorphonuclear leucocytes; assay type: cell-based; details: PMNL; for inhibition at 100 µM: Homo sapiens, read-out: Lipoxygenase inhib. in vitro, % inhibition of the LTB4 synthesis at 10^-4 Mol/l
Procedure: 2. In order to investigate the lipoxygenase-inhibiting properties, the inhibiting effect of the substances on the biosynthesis of leucotriene B4 (=LTB4) from arachidonic acid by activated inflamed cells was determined in vitro. Leucotriene B4, a dihydroxy fatty acid which plays an important role not only in the inflammation but also in allergic reactions was oxidatively formed, starting from arachidonic acid, by oxidation through the action of the enzyme lipoxygenase.
LTB4 Synthesis and Inhibition Test.
The combined extracts were evaporated under vacuum to dryness and the residue was taken up in 0.5 ml 30% aqueous methanol and was analyzed with the aid of high pressure liquid chromatography with phase reversal (=reversed phase-HPLC). The stationary phase (=separating medium) consisted of silica gel containing octadecyl groups chemically bound thereto (=RSIL C18 HP; produced by Autech, Darfield, Ill.). The solvent mixture is methanol:water:acetic acid (67:33:0.1; v/v/v), which had been adjusted to a pH value of 6.2 with NH3 /H2 O. The flow velocity was 1 ml/min. […] The LTB4 signals were compared with those of the control (cell incubation with solvent) and reported as percent inhibition of LTB4 synthesis compared with the controls.

male mice = assay: Determination of the minimum toxic dose; assay type: in vivo; details: max. dose 300 mg/kg, 24 h
Procedure: 3. Determination of the minimum toxic dose.
Male mice of 20 to 25 g weight were given maximal doses of 300 mg/kg of test substance per os. The animals were carefully watched over a period of three hours for toxicity symptoms. Over a period of twenty-four hours after administration, all symptoms and deaths were recorded. Associated symptoms were also watched and recorded. If death or strongly toxic symptoms were noted, further mice were given increasingly lower doses. The lowest dose which brought about death or strongly toxic symptoms was reported as the minimum toxic dose.

[3] = 10^-4 Mol/l, Ca-ionophore A 23187, arachidonic acid

SMILES | inhibition in vivo at 215 µmol/kg ([1]; ip, 215 μmol/kg i.p.) [%] | inhibition in vivo at 100 µmol/kg ([1]; po) [%] | Inhibition in vitro of the oxygen radical liberation, Chemiluminescence Test % inhibition, Ind. CL [2] [%] | Inhibition in vitro of the oxygen radical liberation, Chemiluminescence Test % inhibition, Spnt. CL [2] [%] | inhibition at 100 µM (Lipoxygenase; [3]) [%] | Minimal toxic dose mg/kg mouse p.o. (male mice) [mg/kg] | inhibition at 100 µM (Lipoxygenase) [%] | inhibition in vivo at 215 µmol/kg ([1]; po, 215 μmol/kg p.o.) [%] | Lipoxygenase inhib. in vitro, % inhibition of the LTB4 synthesis at 10^-4 Mol/l (Lipoxygenase; [3]) [%]
Cl.O=C(c1c(-c2ccccc2)oc2ccccc2c1=O)N1CCN(c2ccccn2)CC1 [Example 1c, 3-{[4-(2-Pyridyl)-piperazin-1-yl]-carbonyl}flavone hydrochloride] | 55 | 44 | 39 | 49 | 52 | > 300 |  |  | 
O.O=C(O)C(O)C(O)C(=O)O.O=C(c1c(-c2ccccc2)oc2ccccc2c1=O)N1CCN(Cc2ccccc2)CC1 [Example 2b, 3-[(4-benzyl-piperazin-1-yl)-carbonyl]flavone tartrate monohydrate] |  | 25 | 54 | 67 |  | > 300 | 92 |  | 
CCN(CC)CCCOC(=O)c1c(-c2ccccc2)oc2ccccc2c1=O.Cl [Example 3b, 3-[3-(diethylamino)propoxycarbonyl]flavone hydrochloride] |  |  | 83 | 94 | 8 | 300 |  |  | 
O=C(NCCCCN1CCN(c2ccccn2)CC1)c1c(-c2ccccc2)oc2ccccc2c1=O [Example 4e, 3-{4-[4-(2-pyridyl)-piperazin-1-yl]-butylaminocarbonyl}flavone] | 54 |  | 82 | 95 | 10 | 300 |  | 50 | 
COc1cc(-c2oc3ccccc3c(=O)c2C(=O)N2CCN(c3ccccn3)CC2)cc(OC)c1OC [Example 7a, 3',4',5'-trimethoxy-3-{[4-(2-pyridyl)-piperazin-1-yl]-carbonyl}flavone] |  |  | 65 | 75 | 38 | > 300 |  |  | 
COc1cc(-c2oc3ccccc3c(=O)c2C(=O)N2CCN(c3ccccn3)CC2)cc(OC)c1OC [Example 7b, 3',4',5'-trimethoxy-3-{[4-(2-pyridyl)-piperazin-1-yl]-carbonyl}flavone] |  |  | 50 | 61 |  | > 300 |  | 40 | 42
O.O.O=C(O)C(O)C(O)C(=O)O.O=C(c1c(-c2cc(O)c(O)c(O)c2)oc2ccccc2c1=O)N1CCN(Cc2ccccc2)CC1 [Example 14e, 3',4',5'-trihydroxy-3-[(4-benzylpiperazin-1-yl)carbonyl] -flavone tartrate dihydrate] | 33 |  | 99 | 98 |  | > 300 | 86 |  | 
CN1CCN(CCCCNC(=O)c2c(-c3ccccc3)oc3ccccc3c2=O)CC1 [Example 24] |  |  | 14 | 55 | 46 | > 300 |  |  | 
O=C(c1c(-c2cccc(O)c2)oc2ccccc2c1=O)N1CCN(Cc2ccccc2)CC1 [Example 30] |  |  | 85 | 85 | 44 | > 300 |  |  | 
COc1ccc(-c2oc3ccccc3c(=O)c2C(=O)N2CCN(c3ccccn3)CC2)cc1OC [Example 32b] |  |  | 65 | 71 | 25 | > 300 |  |  | 
COc1cc(OC)c2c(=O)c(C(=O)N3CCN(c4ccccn4)CC3)c(-c3ccccc3)oc2c1 [Example 34] |  |  | 55 | 54 | 25 |  |  | 30 | 
CC(=O)Oc1cc(-c2oc3ccccc3c(=O)c2C(=O)N2CCN(c3ccccn3)CC2)cc(OC(C)=O)c1OC(C)=O [Example 39b] | 62 |  | 99 | 99 | 93 |  |  |  | 
O=C(NCCc1ccccn1)c1c(-c2cc(O)c(O)c(O)c2)oc2ccccc2c1=O [Example 53] | 50 |  | 83 | 73 | 77 |  |  |  | 
COc1cc(-c2oc3ccccc3c(=O)c2C(=O)NCCCCN2CCN(c3ncccn3)CC2)cc(OC)c1OC [Example 54] | 40 |  | 83 | 91 | 44 | > 300 |  |  | 
